# Measurements taken from PMC9866629, “Pharmacokinetics of Novel Furoxan/Coumarin Hybrids in Rats Using LC-MS/MS Method and Physiologically Based Pharmacokinetic Model” (Molecules, 2023).
# Values joined by “and” are separate entries in the source; they are usually repeats but may differ in a detail not shown here. Equal entries are not always repeated. Where two headings read alike, the source gives them in different places.
# Tests used:
# [1] = In vitro intrinsic clearance, disappearance via rat liver microsomes; assay type: in vitro ADME; details: for microsomal CLint: Sprague Dawley, rat, pooled liver microsomes, pH 7.4, rat hepatic microsomes; for microsomal CLint / CLint: Vmax divided by Km; for Km at 20 min: pooled rat liver microsomes, pH 7.4; for Km at 20 min / Vmax: rat hepatic microsomes 0.2 mg protein/mL, NADPH 1 mM, 20 min; for CLint: rat hepatic microsomes
# Experimental: The incubation mixture with a final volume of 50 μL contained the testing compound, rat liver microsomes (0.2 mg protein/mL), phosphate buffer ([…], pH 7.4), and NADPH (1 mM). Before adding NADPH, the reaction mixture was preincubated in a shaking water bath at 37 °C for 5 min. 200 μL of methanol–acetonitrile mixture (1:1) containing IS was added to terminate the reaction after incubation for 20 min. Concentration of the testing compound was determined by LC-MS/MS after centrifugation at 14,000 rpm for 15 min. […] All experiments were performed in triplicate.
# (§1) Vmax and Km were estimated via the nonlinear regression of the Michaelis–Menten model by using GraphPad Prism (Version 6.01, http://www.graphpad.com/). The PK parameters were determined from drug plasma concentration-time data by employing a noncompartmental approach using Phoenix WinNonlin (version 3.0).
# [2] = Pharmacokinetic study after intravenous administration to rats; assay type: in vivo, rat; details: for clearance / AUC(0-inf) / Cmax / MRT / Tmax / Vd / half-life / AUC(0-t): rat, plasma; for AUC(0-t): read-out: AUC(0–24 h)
# Experimental: Rats were randomly divided into three groups, namely A, B, and C, with six rats in each group. […] Blood samples (0.15–0.2 mL) were collected through the femoral artery into an Eppendorf tube moistened with heparinized 0.9% NaCl before intravenous injection (0 h) and at 0.083, 0.25, 0.5, 1, 2, 4, 8, 12, and 24 h after intravenous injection. The blood sample was immediately centrifuged at 3000 rpm for 10 min at a temperature of 4 °C, and the upper plasma sample was collected and stored at −80 °C until analysis.
# The plasma samples were thawed at room temperature before determination. Further, 20 μL of plasma was pipetted into a 1.5 mL Eppendorf tube, and 80 μL of methanol–acetonitrile (1:1, v/v) solution containing 200 ng/mL IS was added to precipitate the proteins. The contents were mixed thoroughly via vortexing the plasma sample for 40 s. The supernatant was aspirated for LC-MS/MS analysis after centrifugation at 14,000 rpm for 15 min.
# as §1
# [3] = PBPK modeling (Simcyp Rat); details: blood, intravenous, in rats, calculated on the basis of B/P and the plasma clearance rate, read-out: liver blood clearance
# Text: PBPK models were constructed with physical chemistry and in vitro PK parameters, such as molecular weight (MW), octanol–buffer partition coefficient (log Po:w), compound type, pKa, B/P, fu, and CLint, using Simcyp (Simcyp Rat Version 16, Sheffield, UK). Two physical chemistry parameters of log Po:w and pKa were predicted on the basis of the structure of the chemicals by using the ADMET Predictor (v.9.0, Lancaster, http://www.simulations-plus.com/, accessed on 9 September 2019). Other parameters, including B/P, fu, and CLint, were obtained through in vitro experiments as mentioned above. The time course of xenobiotic concentration in plasma was simulated, and the PBPK models were further optimized on the basis of the experimental in vivo PK parameters (AUC, Cmax, and time to reach Cmax (Tmax)). The prediction accuracy of the PBPK model was evaluated by introducing the deviation (fold error) of the predicted PK parameters and comparing them with the experimental ones. The equation of the fold error is shown below. A simulation with fold errors no greater than 2 is acceptable [36, 42]. (1) fold error=observed parameter/predicted parameter;if observed value>predicted value (2) fold error=predicted parameter/observed parameter;if predicted value>observed value
# [4] = Stability test of QC plasma samples (LC-MS/MS validation); assay type: physicochemical, rat; details: QC plasma samples 20–800 ng/mL, frozen at −80 °C for one week, n = 5
# Experimental: The concentration of the testing compound was calculated by using the calibration curves with seven dots (10, 25, 50, 100, 250, 500, and 1000 ng/mL). The calibration line was constructed by plotting the peak area ratio (y-axis) of analytes to IS versus the nominal concentration (x-axis). The specificity and selectivity were investigated by comparing the chromatograms of blank plasma samples with the corresponding samples spiked with testing compounds. The signal-to-noise ratio (S/N) of the lower limit of quantification (LLOQ) was at least at 10. The linearity of the calibration graph was validated, and the calculated concentrations of the calibration standards should be all within ±15% of the nominal value, except for the LLOQ of ±20%. The linear correlation coefficient (R^2) should be 0.9900 or greater. The intra- and interday precisions and accuracy of the method were assessed by determining the quality control (QC) samples of […] (six samples at each concentration level) over 3 consecutive days. The coefficient of variation (CV) should not exceed 20% at LLOQ and should be within 15% for QCs. The relative error (RE) should be within 80%–120% at LLOQ and within 85%–115% for QCs. Recovery was assessed by comparing peak area of nominal QC plasma samples with peak area of the spike-after extraction samples (six samples at each concentration level). The matrix effect was evaluated by comparing peak area of the spike-after extraction samples with that of the analytes spiked in pure water (six samples at each concentration level). The recovery and matrix factor should be within 85%–115%. The variation in recovery and matrix effect should be less than 15%. The dilution integrity test was performed for samples exceeding the upper limit of quantification (ULOQ). QCs were prepared (5 samples at each concentration level) and frozen at […] for one week. LC-MS/MS analysis was performed to calculate the stability (RE). Samples of 25 μg/mL (n = 6) were diluted with blank matrix to 0.5 μg/mL, which was within the calibration line range, and the RE should be within 85–115%.
# [5] = Blood-to-plasma concentration ratio (B/P) in rat blood; assay type: in vitro ADME; details: 37 °C, 1 μg/mL (CY-14S-4A83, CY-16S-4A43), 5 μg/mL (CY-16S-4A93)
# Experimental: Two batches of blood samples were prepared in parallel. One batch of the blood samples was then incubated in a shaking water bath at 37 °C for 30 min, and the other batch was incubated for 60 min. After incubation, one 150 μL aliquot of blood samples was centrifuged at 1500 rpm for 5 min, and the concentrations of the testing compound in the resulting plasma portion after extraction were determined by LC-MS/MS. In parallel, another 50 uL aliquot of the blood incubation sample was transferred into an Eppendorf tube and lysed by three-cycle freeze/thaw method. After the cell-lysis and extraction, the concentration of testing compound in the whole blood sample was determined by LC-MS/MS. The B/P was determined directly by the ratio of drug concentration in the whole blood to the plasma concentration. All experiments were performed in triplicate.
# [6] = Free drug fraction (fu) in rat plasma by ultrafiltration; assay type: in vitro ADME
# Experimental: The fu of furoxan/coumarin hybrids in plasma was measured through the ultrafiltration method by using Amicon Ultra-15 ultrafiltration centrifuge tube (0.5 mL, 3-kDa membrane, Millipore, Bedford, MA, USA). […] One batch was incubated in a shaking water bath at 37 °C for 30 min, and the other batch was incubated for 60 min. After incubation, a plasma sample was transferred into ultrafiltration tube and centrifuged at 10,000 rpm for 20 min. The free compound in the filtrated fraction was determined directly by LC-MS/MS. All experiments were performed in triplicate.
# [7] = 1.67 mg/kg, experimental value compared with PBPK prediction, read-out: experimental CL
# [8] = single dose 1.67 mg/kg, read-out: CL (converted)
Compound,microsomal CLint [1],Km at 20 min [1],Vmax [1],clearance [3],Stability (RE) [4],"clearance [2, 7]",AUC(0-inf) ([2]; single dose 1.67 mg/kg),Cmax ([2]; single dose 1.67 mg/kg),MRT ([2]; single dose 1.67 mg/kg),Tmax ([2]; single dose 1.67 mg/kg),Vd ([2]; single dose 1.67 mg/kg),half-life ([2]; single dose 1.67 mg/kg),AUC(0-t) ([2]; single dose 1.67 mg/kg),"clearance [2, 8]",also measured
Cc1c(Cc2ccc(F)cc2)c(=O)oc2cc(OCCOc3no[n+]([O-])c3S(=O)(=O)c3ccccc3)ccc12 [CY-14S-4A83],336 µL/min/mg,18 ± 2.3 µM,6044.0 pmol/min/mg Protein and 6044.0 ± 290.8 pmol/min/mg Protein,0.23 mL/min,88–94.4%,–,–,–,–,–,–,–,–,–,"CLint [1]: 336.033 µL/min/mg; plasma concentration within 24 h (stays above LLOQ) ([2]; 0.5 mg/kg): > 10 ng/mL; clearance ([2]; 0.5 mg/kg, experimental value compared with PBPK prediction, read-out: experimental CL): 1.73 mL/min; AUC(0-inf) ([2]; single dose 0.5 mg/kg): 1340 ± 475 ng·h/mL; Cmax ([2]; single dose 0.5 mg/kg): 946 ± 452 ng/mL; MRT ([2]; single dose 0.5 mg/kg): 366 ± 90 min; Tmax ([2]; single dose 0.5 mg/kg): 12 ± 12 min; Vd ([2]; single dose 0.5 mg/kg): 0.56 ± 0.15 L/kg; half-life ([2]; single dose 0.5 mg/kg): 60 ± 12 min; AUC(0-t) ([2]; single dose 0.5 mg/kg): 1310 ± 462 ng·h/mL; clearance ([2]; single dose 0.5 mg/kg, read-out: CL (converted)): 6.91 mL/min/kg; B/P ([5]; incubation time 30 min): 12.11 ± 0.094; B/P ([5]; incubation time 60 min): 12.34 ± 0.03; fraction unbound at 30 min ([6]; rat, fresh rat plasma): 0.0298 ± 0.002; fraction unbound at 60 min ([6]; rat, fresh rat plasma): 0.0217 ± 0.0003; f u ([6]; value used in the PBPK modeling): 0.02"
Cc1c(Cc2ccc(C#N)cc2)c(=O)oc2cc(OCCOc3no[n+]([O-])c3S(=O)(=O)c3ccccc3)ccc12 [CY-16S-4A43],333 µL/min/mg,1.4 ± 0.3 µM,481.2 pmol/min/mg Protein and 481.2 ± 30.0 pmol/min/mg Protein,1.87 mL/min,86–99.5%,10.9 mL/min,673 ± 182 ng·h/mL,1210 ± 482 ng/mL,270 ± 60 min,6 ± 6 min,2.03 ± 0.63 L/kg,30 ± 6 min,669 ± 182 ng·h/mL,43.7 mL/min/kg,time within which plasma concentration dropped to less than 10 ng/mL ([2]; 1.67 mg/kg): 2 to 4 h
Cc1c(Cc2ccc(C(F)(F)F)cc2)c(=O)oc2cc(OCCOc3no[n+]([O-])c3S(=O)(=O)c3ccccc3)ccc12 [CY-16S-4A93],174 µL/min/mg,1.3 ± 0.2 µM,220.0 pmol/min/mg Protein,0.24 mL/min,86.5–94.7%,2.08 mL/min,3850 ± 1770 ng·h/mL,9380 ± 4210 ng/mL,132 ± 42 min,6 min,0.68 ± 0.38 L/kg,54 ± 12 min,3850 ± 1770 ng·h/mL,8.34 mL/min/kg,Vmax ([1]; listed as CY-14S-4A93): 220.0 ± 14.1 pmol/min/mg Protein; CLint ([1]; listed as CY-14S-4A93): 173.83 µL/min/mg; plasma concentration within 24 h (stays above LLOQ) ([2]; 1.67 mg/kg): > 10 ng/mL
